Laboratory results as given in patent US20150141448A1, “Topical Ophthalmological Pharmaceutical Composition containing Pazopanib” (BAYER HEALTHCARE LLC, priority 2012, published 2015).
Structures can show the parent of a compound that is named as a salt.

Test: Solubility in lipophilic vehicles
Assay type: physicochemical
Settings: lipophilic vehicles like liquid or light liquid paraffin

Q: Which “solubility in lipophilic vehicles” value does the source give for `Cc1ccc(Nc2nccc(N(C)c3ccc4c(C)n(C)nc4c3)n2)cc1S(N)(=O)=O` [pazopanib hydrochloride, 5-[[4-[(2,3-Dimethyl-2H-indazol-6-yl)methylamino]-2-pyrimidinyl]amino]-2-methylbenzolsulfonamide] here?
A: very low
